From publication PMC3674988, “Scrutinizing MHC-I Binding Peptides and Their Limits of Variation” (PLoS Computational Biology, 2013)

Tested on: H-2K^b:IgG fusion protein
Assay: Thermal denaturation assay, direct binding of SIINFEKL fragments
Set-up: species or system mouse
Details: normalized fluorescence melting curves, first derivative; vs NoLigand; 100 µM peptide
Description: Thermal denaturation studies were conducted using a StepOnePlus real-time PCR system (Applied Biosystems) with MicroAmp optical 96-well plates (Applied Biosystems cat. no. N8010560). Wells were loaded with 10 µl of H-2K^b:IgG fusion protein solution (protein conc. = 0.5 mg×ml^−1; BD Biosciences cat. no. 550750) – respectively 10 µl of PBS buffer (pH 7.36) for ligand-only controls – 2 µl of peptide or peptide fragments, 2 µl of 10× SYPRO Orange (SigmaAldrich cat. no. S5692) and 6 µl (8 µl for negative controls) to yield a total volume of 20 µl per well. Final concentrations calculated to 1 µM for H-2K^b:IgG fusion protein, 100 µM for the peptides/peptide fragments and 1× SYPRO Orange. Fluorescence intensity was measured using the Applied Biosystems ROX preset with respective excitation/emission maxima at 587/607 nm, while heating the wells continuously from 25°C to 99°C with a ramp rate of 1% (temperature increase of 1.5°C per minute). Results were recorded by StepOne 2.2.2 software and analyzed by identifying the local minimum of the derivative of the melting curve for the segment relevant for denaturation of the peptide-binding superdomain (α1,2) of the MHC-I heavy chain.

| Substance | Melting point shift of peptide-MHC-I complex (melting curves) |
| --- | --- |
| IINFEKL [synthesized SIINFEKL fragment] | significant melting point shift |
| INFE [synthesized SIINFEKL fragment] | no melting point shift |
| SIINF [synthesized SIINFEKL fragment] | significant melting point shift |

Other lines, results leading:

| Melting point shift of peptide-MHC-I complex (melting curves) | Substance |
| --- | --- |
| significant melting point shift | SIINFEK [synthesized SIINFEKL fragment] |
| significant melting point shift | SIINFE [synthesized SIINFEKL fragment] |
| significant melting point shift | INFEKL [synthesized SIINFEKL fragment] |
